Assay results from EP2776398B1, “SUBSTITUTED PYRAZOLYL-BASED UREA DERIVATIVES AS VANILLOID RECEPTOR LIGANDS” (Medifron DBT Inc., priority 2011, dated 2013).

Molecular target: T1, vanilloid receptor 1 (VR1/TRPV1 receptor) (Homo sapiens, UniProt Q8NER1)
T1 construct: expressed in transfected cells; host or cells: CHO K1 cells (ECACC), stably transfected
Assay: Functional testing on vanilloid receptor 1: FLIPR Ca2+ influx assay against capsaicin (Cap) in transfected CHO K1 cells (pharmacological method II); for Ki: 100 nM capsaicin
Assay type: cell-based
Design: key to (f) Ki (human being) [nM] Cap: agonist classification: AG = agonist
Conditions: for (f) Ki (human being) [nM] Cap: agonist classification / inhibition at 5 µM: human VR1 in CHO K1 cells; for (f) Ki (human being) [nM] Cap: agonist classification: AG printed instead of a Ki; for Ki: read-out: (f) Ki (human being) [nM] Cap; for inhibition at 5 µM: capsaicin, relative to maximum inhibition with 10 µM capsazepine, read-out: inhibition (as a percentage), printed in column (f) Ki (human being) [nM] Cap
From the text: […]

T1 sequence (Q8NER1 whole entry): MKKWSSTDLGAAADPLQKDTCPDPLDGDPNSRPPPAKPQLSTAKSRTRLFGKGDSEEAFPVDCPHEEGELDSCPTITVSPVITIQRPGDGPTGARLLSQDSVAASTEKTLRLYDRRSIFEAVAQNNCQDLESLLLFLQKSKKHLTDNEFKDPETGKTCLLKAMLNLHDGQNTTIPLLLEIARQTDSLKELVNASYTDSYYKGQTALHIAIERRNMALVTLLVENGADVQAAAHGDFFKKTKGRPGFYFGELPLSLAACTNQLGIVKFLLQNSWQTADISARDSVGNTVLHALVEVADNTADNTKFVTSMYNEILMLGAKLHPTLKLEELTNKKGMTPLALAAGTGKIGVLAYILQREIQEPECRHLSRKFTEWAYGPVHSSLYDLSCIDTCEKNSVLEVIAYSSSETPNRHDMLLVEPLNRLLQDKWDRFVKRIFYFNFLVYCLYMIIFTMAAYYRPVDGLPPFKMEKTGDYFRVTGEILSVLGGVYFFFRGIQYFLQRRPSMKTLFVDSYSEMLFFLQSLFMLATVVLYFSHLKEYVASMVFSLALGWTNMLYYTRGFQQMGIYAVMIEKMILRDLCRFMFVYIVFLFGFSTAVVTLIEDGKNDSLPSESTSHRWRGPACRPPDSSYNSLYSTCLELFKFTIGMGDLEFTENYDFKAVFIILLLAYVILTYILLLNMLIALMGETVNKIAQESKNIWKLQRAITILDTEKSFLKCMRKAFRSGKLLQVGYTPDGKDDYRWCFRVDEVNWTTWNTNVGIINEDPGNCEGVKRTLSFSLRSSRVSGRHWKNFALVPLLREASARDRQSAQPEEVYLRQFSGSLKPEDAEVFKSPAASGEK

SMILES | Ki [nM] | inhibition at 5 µM [%] | other results
CC(C(=O)NCc1cc(C(C)(C)C)nn1-c1cccc(Cl)c1)c1ccc(CCO)c(F)c1 (centres unmarked) [A139, N-[[5-tert-Butyl-2-(3-chlorophenyl)-2H-pyrazol-3-yl]-methyl]-2-[3-fluoro-4-(2-hydroxy-ethyl)-phenyl]-propionamide] |  |  | (f) Ki (human being) [nM] Cap: agonist classification: AG
CC(C)(C)c1cc(CNC(=O)Nc2ccc(CCO)c(F)c2)n(-c2cccc(Cl)c2)n1 [A140, 1-[[5-tert-Butyl-2-(3-chlorophenyl)-2H-pyrazol-3-yl]-methyl]-3-[3-fluoro-4-(2-hydroxy-ethyl)-phenyl]-urea] |  |  | (f) Ki (human being) [nM] Cap: agonist classification: AG
O=C(NCc1cc(C(F)(F)F)nn1-c1cccc(Cl)c1)Nc1ccc(CCO)c(F)c1 [A141, 1-[[2-(3-Chlorophenyl)-5-(trifluoromethyl)-2H-pyrazol-3-yl]-methyl]-3-[3-fluoro-4-(2-hydroxy-ethyl)-phenyl]-urea] | 26 |  | 
CC(C(=O)NCc1cc(C(C)(C)C)nn1-c1cccc(Cl)c1)c1ccc(C(O)CO)c(F)c1 (centres unmarked) [A145, N-[[5-tert-Butyl-2-(3-chlorophenyl)-2H-pyrazol-3-yl]-methyl]-2-[4-(1,2-dihydroxy-ethyl)-3-fluoro-phenyl]-propionamide] |  |  | (f) Ki (human being) [nM] Cap: agonist classification: AG
CC(C(=O)NCc1cc(C(F)(F)F)nn1-c1cccc(Cl)c1)c1ccc(C(O)CO)cc1 (centres unmarked) [A146, N-[[2-(3-Chlorophenyl)-5-(trifluoromethyl)-2H-pyrazol-3-yl]-methyl]-2-[4-(1,2-dihydroxy-ethyl)-phenyl]-propionamide] | 13 |  | 
CC(C(=O)NCc1cc(C(C)(C)C)nn1-c1cccc(Cl)c1)c1ccc(C(O)CO)cc1 (centres unmarked) [A147, N-[[5-tert-Butyl-2-(3-chlorophenyl)-2H-pyrazol-3-yl]-methyl]-2-[4-(1,2-dihydroxy-ethyl)-phenyl]-propionamide] |  |  | (f) Ki (human being) [nM] Cap: agonist classification: AG
CC(C(=O)NCc1cc(C(F)(F)F)nn1-c1cccc(Cl)c1)c1ccc(C(O)CO)c(F)c1 (centres unmarked) [A148, N-[[2-(3-Chlorophenyl)-5-(trifluoromethyl)-2H-pyrazol-3-yl]-methyl]-2-[4-(1,2-dihydroxy-ethyl)-3-fluoro-phenyl]-propionamide] | 4 |  | 
CC(C)(C)c1cc(CNC(=O)Nc2ccc(C(O)CO)c(F)c2)n(-c2cccc(Cl)c2)n1 (centres unmarked) [A150, 1-[[5-tert-Butyl-2-(3-chlorophenyl)-2H-pyrazol-3-yl]-methyl]-3-[4-(1,2-dihydroxy-ethyl)-3-fluoro-phenyl]-urea] | 19 |  | 
O=C(NCc1cc(C(F)(F)F)nn1-c1cccc(Cl)c1)Nc1ccc(C(O)CO)c(F)c1 (centres unmarked) [A151, 1-[[2-(3-Chlorophenyl)-5-(trifluoromethyl)-2H-pyrazol-3-yl]-methyl]-3-[4-(1,2-dihydroxy-ethyl)-3-fluoro-phenyl]-urea] | 62 |  | 
CC(C)(C)c1cc(CNC(=O)Nc2ccc(C(CO)CO)c(F)c2)n(-c2cccc(Cl)c2)n1 [A152, 1-[[5-tert-Butyl-2-(3-chlorophenyl)-2H-pyrazol-3-yl]-methyl]-3-[3-fluoro-4-[2-hydroxy-1-(hydroxymethyl)-ethyl]-phenyl]-urea] |  | 39 | 
O=C(NCc1cc(C(F)(F)F)nn1-c1cccc(Cl)c1)Nc1ccc(C(CO)CO)c(F)c1 [A153, 1-[[2-(3-Chlorophenyl)-5-(trifluoromethyl)-2H-pyrazol-3-yl]-methyl]-3-[3-fluoro-4-[2-hydroxy-1-(hydroxymethyl)-ethyl]-phenyl]-urea] |  | 50 | 
CC(CO)(CO)c1ccc(NC(=O)NCc2cc(C(F)(F)F)nn2-c2cccc(Cl)c2)cc1F [A154, 1-[[2-(3-Chlorophenyl)-5-(trifluoromethyl)-2H-pyrazol-3-yl]-methyl]-3-[3-fluoro-4-[2-hydroxy-1-(hydroxymethyl)-1-methyl-ethyl]-phenyl]-urea] | 117 |  | 
CC(CO)(CO)c1ccc(NC(=O)NCc2cc(C(F)(F)F)nn2-c2cccc(Cl)c2)cc1 [A155, 1-[[2-(3-Chlorophenyl)-5-(trifluoromethyl)-2H-pyrazol-3-yl]-methyl]-3-[4-[2-hydroxy-1-(hydroxymethyl)-1-methyl-ethyl]-phenyl]-urea] |  | 26 | 
CC(C)(C)c1cc(CNC(=O)Nc2ccc(C(C)(CO)CO)c(F)c2)n(-c2cccc(Cl)c2)n1 [A156, 1-[[5-tert-Butyl-2-(3-chlorophenyl)-2H-pyrazol-3-yl]-methyl]-3-[3-fluoro-4-[2-hydroxy-1-(hydroxymethyl)-1-methyl-ethyl]-phenyl]-urea] | 84 |  | 
CC(C)(C)c1cc(CNC(=O)Nc2ccc(C(C)(CO)CO)cc2)n(-c2cccc(Cl)c2)n1 [A157, 1-[[5-tert-Butyl-2-(3-chlorophenyl)-2H-pyrazol-3-yl]-methyl]-3-[4-[2-hydroxy-1-(hydroxymethyl)-1-methyl-ethyl]-phenyl]-urea] |  | 35 | 
O=C(NCc1cc(C(F)(F)F)nn1-c1cccc(Cl)c1)Nc1ccc(C(O)(CO)CO)cc1 [A158, 1-[[2-(3-Chlorophenyl)-5-(trifluoromethyl)-2H-pyrazol-3-yl]-methyl]-3-[4-[1,2-dihydroxy-1-(hydroxymethyl)-ethyl]-phenyl]-urea] |  | 13 | 
CC(C)(C)c1cc(CNC(=O)Nc2ccc(C(O)(CO)CO)cc2)n(-c2cccc(Cl)c2)n1 [A159, 1-[[5-tert-Butyl-2-(3-chlorophenyl)-2H-pyrazol-3-yl]-methyl]-3-[4-[1,2-dihydroxy-1-(hydroxymethyl)-ethyl]-phenyl]-urea] |  | 24 | 
